Test results as given in ChEMBL document CHEMBL4725306, “Discovery of (3S,4S)-3-methyl-3-(4-fluorophenyl)-4-(4-(1,1,1,3,3,3-hexafluoro-2-hydroxyprop-2-yl)phenyl)pyrrolidines as novel RORγt inverse agonists” (Bioorg Med Chem Lett, 2020).

Assays:
[1] = biological target: T1, Nuclear receptor subfamily 1 group I member 2 (Homo sapiens, UniProt O75469); experiment: Activation of PXR (unknown origin)
T1 sequence (O75469 whole entry): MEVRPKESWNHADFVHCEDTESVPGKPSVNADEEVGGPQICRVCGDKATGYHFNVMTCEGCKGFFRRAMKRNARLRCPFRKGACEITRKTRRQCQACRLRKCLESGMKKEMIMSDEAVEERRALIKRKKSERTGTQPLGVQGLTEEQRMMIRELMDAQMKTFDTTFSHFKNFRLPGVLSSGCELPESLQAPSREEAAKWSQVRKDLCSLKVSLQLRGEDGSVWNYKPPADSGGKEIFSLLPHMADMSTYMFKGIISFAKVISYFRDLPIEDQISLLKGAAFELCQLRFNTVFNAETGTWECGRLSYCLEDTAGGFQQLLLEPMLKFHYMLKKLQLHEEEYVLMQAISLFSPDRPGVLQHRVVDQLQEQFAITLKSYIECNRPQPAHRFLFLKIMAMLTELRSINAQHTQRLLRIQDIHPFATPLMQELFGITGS

[2] = biological target: T1, Nuclear receptor subfamily 1 group I member 2; experiment: (§1) Activation of PXR (unknown origin) relative to rifampicin
[3] = Metabolic stability in human liver microsomes assessed as parent compound remaining incubated for 10 mins; format: ADME, Microsome; conditions: read-out: Stabilty
[4] = Metabolic stability in mouse liver microsomes assessed as parent compound remaining incubated for 10 mins; format: ADME, Microsome; conditions: read-out: Stabilty
[5] = biological target: T2, Nuclear receptor ROR-gamma (Homo sapiens, UniProt P51449); experiment: Inverse agonist activity at RORgammat (unknown origin) expressed in Jurkat cells by reporter assay; format: cell-based
T2 sequence (P51449 whole entry): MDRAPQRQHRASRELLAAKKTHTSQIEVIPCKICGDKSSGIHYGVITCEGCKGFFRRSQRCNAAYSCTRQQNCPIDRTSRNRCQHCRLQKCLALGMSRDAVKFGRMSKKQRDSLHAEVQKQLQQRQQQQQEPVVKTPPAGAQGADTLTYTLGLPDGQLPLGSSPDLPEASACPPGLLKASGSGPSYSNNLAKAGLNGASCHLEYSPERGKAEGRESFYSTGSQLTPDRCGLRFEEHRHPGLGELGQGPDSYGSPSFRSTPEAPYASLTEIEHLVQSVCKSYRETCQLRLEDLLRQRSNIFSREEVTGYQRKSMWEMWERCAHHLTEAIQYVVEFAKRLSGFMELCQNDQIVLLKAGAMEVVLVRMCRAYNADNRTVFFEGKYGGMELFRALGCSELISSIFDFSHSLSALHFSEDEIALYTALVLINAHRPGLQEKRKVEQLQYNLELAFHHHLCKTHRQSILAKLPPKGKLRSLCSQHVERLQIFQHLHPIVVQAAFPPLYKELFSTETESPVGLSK

PXR = biological target: T3, PXR (Homo sapiens, UniProt O75469); experiment: as §1; conditions: read-out: %max
T3 sequence (O75469 whole entry): T1 sequence (O75469 whole entry)

[6] = biological target: T4, Nuclear receptor ROR-alpha (Homo sapiens, UniProt P35398); experiment: Inverse agonist activity at ROR-alpha (unknown origin) expressed in Jurkat cells by gal4 reporter assay; format: cell-based
T4 sequence (P35398 whole entry): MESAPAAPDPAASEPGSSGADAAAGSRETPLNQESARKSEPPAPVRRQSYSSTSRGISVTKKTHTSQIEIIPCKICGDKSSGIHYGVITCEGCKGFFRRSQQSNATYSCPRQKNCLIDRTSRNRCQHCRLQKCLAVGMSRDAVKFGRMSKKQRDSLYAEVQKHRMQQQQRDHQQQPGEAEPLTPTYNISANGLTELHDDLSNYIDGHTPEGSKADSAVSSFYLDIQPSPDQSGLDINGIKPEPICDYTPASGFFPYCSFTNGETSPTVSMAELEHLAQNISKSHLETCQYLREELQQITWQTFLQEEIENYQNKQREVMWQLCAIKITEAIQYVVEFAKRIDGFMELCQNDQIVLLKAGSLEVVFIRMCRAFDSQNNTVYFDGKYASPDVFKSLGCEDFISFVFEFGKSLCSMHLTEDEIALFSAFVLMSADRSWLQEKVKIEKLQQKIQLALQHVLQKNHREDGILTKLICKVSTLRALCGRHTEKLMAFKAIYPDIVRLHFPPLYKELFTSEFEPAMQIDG

[7] = biological target: T5, Nuclear receptor ROR-beta (Homo sapiens, UniProt Q92753); experiment: Inverse agonist activity at ROR-beta (unknown origin) expressed in Jurkat cells by gal4 reporter assay; format: cell-based
T5 sequence (Q92753 whole entry): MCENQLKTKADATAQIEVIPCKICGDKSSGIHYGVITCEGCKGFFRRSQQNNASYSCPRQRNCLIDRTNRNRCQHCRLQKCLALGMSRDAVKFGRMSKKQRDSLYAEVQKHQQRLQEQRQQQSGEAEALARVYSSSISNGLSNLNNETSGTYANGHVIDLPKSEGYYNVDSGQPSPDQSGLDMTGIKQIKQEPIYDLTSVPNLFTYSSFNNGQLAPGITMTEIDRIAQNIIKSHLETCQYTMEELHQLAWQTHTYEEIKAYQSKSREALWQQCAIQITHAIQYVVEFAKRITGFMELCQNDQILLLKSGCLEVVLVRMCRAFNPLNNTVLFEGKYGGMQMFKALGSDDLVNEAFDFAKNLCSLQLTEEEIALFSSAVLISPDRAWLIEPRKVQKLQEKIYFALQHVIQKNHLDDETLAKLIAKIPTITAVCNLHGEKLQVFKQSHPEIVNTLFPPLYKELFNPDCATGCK

| SMILES | EC50 [1] [µM] | %max [2] [%] | remaining at 10 min [3] [%] | remaining at 10 min [4] [%] | EC50 [5] [µM] | Emax (PXR) [%] | EC50 [6] [µM] | EC50 [7] [µM] |
| --- | --- | --- | --- | --- | --- | --- | --- | --- |
| C[C@]1(c2ccc(F)cc2)CN(C(=O)NCc2ccccc2)C[C@H]1c1ccc(C(O)(C(F)(F)F)C(F)(F)F)cc1 | 0.559 | 98 | 73 | 67 | – | – | – | – |
| C[C@]1(c2ccccc2)CNC[C@H]1c1ccc(C(O)(C(F)(F)F)C(F)(F)F)cc1 (racemic) | 1.25 | – | – | – | 7.91 | 39 | – | – |
| CC(=O)N1CCC(C(=O)N2C[C@H](c3ccc(C(O)(C(F)(F)F)C(F)(F)F)cc3)[C@](C)(c3ccccc3)C2)CC1 | – | – | 74 | 79 | – | – | – | – |
| C[C@]1(c2ccccc2)CN(CC(N)=O)C[C@H]1c1ccc(C(O)(C(F)(F)F)C(F)(F)F)cc1 (racemic) | 0.276 | – | – | – | – | 96 | – | – |
| C[C@]1(c2ccccc2)CN(S(C)(=O)=O)C[C@H]1c1ccc(C(O)(C(F)(F)F)C(F)(F)F)cc1 (racemic) | 0.257 | – | – | – | – | 110 | – | – |
| CCS(=O)(=O)c1ccc(CNC(=O)N2C[C@@H](c3ccc(C(O)(C(F)(F)F)C(F)(F)F)cc3)[C@@](C)(c3ccc(F)cc3)C2)cc1 | 0.005 | – | 32 | 51 | – | 100 | – | – |
| C[C@]1(c2ccc(F)cc2)CN(C(=O)C2CCN(C(N)=O)CC2)C[C@H]1c1ccc(C(O)(C(F)(F)F)C(F)(F)F)cc1 | 1.06 | – | 97 | 100 | – | 72 | – | – |
| C[C@@]1(c2ccc(F)cc2)CN(C(=O)NCc2ccccc2)C[C@@H]1c1ccc(C(O)(C(F)(F)F)C(F)(F)F)cc1 | 0.472 | – | 58 | 17 | – | 80 | – | – |
| C[C@]1(c2ccc(F)cc2)CN(C(=O)NCc2ccncc2)C[C@H]1c1ccc(C(O)(C(F)(F)F)C(F)(F)F)cc1 | – | – | 11 | 1 | – | – | – | – |
| C[C@]1(c2ccc(F)cc2)CN(C(=O)NCc2ccccc2)C[C@H]1c1ccc(C(O)(C(F)(F)F)C(F)(F)F)cc1 (racemic) | 0.474 | – | – | – | – | 79 | – | – |
| CC(=O)N1C[C@@H](c2ccc(C(O)(C(F)(F)F)C(F)(F)F)cc2)[C@@](C)(c2ccccc2)C1 (racemic) | 0.361 | – | – | – | – | 110 | – | – |
| C[C@]1(c2ccc(F)cc2)CN(C(=O)C2CCN(C(=O)CC#N)CC2)C[C@H]1c1ccc(C(O)(C(F)(F)F)C(F)(F)F)cc1 | 0.495 | – | 80 | 79 | – | 46 | > 40 | > 40 |
| C[C@@]1(c2ccc(C(O)(C(F)(F)F)C(F)(F)F)cc2)CN(C(=O)NCc2ccccc2)C[C@@H]1c1ccccc1 (racemic) | 0.06 | – | – | – | – | 84 | – | – |
| CC(=O)N1CCC(C(=O)N2C[C@@H](c3ccc(C(O)(C(F)(F)F)C(F)(F)F)cc3)[C@@](C)(c3ccc(F)cc3)C2)CC1 | 1.08 | – | 86 | 81 | – | 61 | – | – |
| C[C@]1(c2ccc(F)cc2)CN(C(=O)C2CCN(S(C)(=O)=O)CC2)C[C@H]1c1ccc(C(O)(C(F)(F)F)C(F)(F)F)cc1 | 0.151 | – | 90 | 80 | – | 78 | – | – |
| C[C@]1(c2ccc(F)cc2)CN(C(=O)NCc2ccc3c(c2)OCO3)C[C@H]1c1ccc(C(O)(C(F)(F)F)C(F)(F)F)cc1 | – | – | 54 | 65 | – | – | – | – |
| C[C@]1(c2ccccc2)CN(C(=O)c2ccccc2)C[C@H]1c1ccc(C(O)(C(F)(F)F)C(F)(F)F)cc1 (racemic) | 0.74 | – | – | – | – | 93 | – | – |
| CC(=O)N1CCC(C(=O)N2C[C@@H](c3ccc(C(F)(C(F)(F)F)C(F)(F)F)cc3)[C@@](C)(c3ccc(F)cc3)C2)CC1 | > 50 | – | – | – | – | 15 | – | – |
| C[C@]1(c2ccc(F)cc2)CN(C(=O)C2CCN(C(=O)CO)CC2)C[C@H]1c1ccc(C(O)(C(F)(F)F)C(F)(F)F)cc1 | – | – | 86 | 82 | – | – | – | – |
| C[C@]1(c2ccc(F)cc2)CN(C(=O)NCc2ccc(C#N)cc2)C[C@H]1c1ccc(C(O)(C(F)(F)F)C(F)(F)F)cc1 | – | – | 76 | 51 | 0.074 | – | – | – |
| CC(=O)N1CCC(C(=O)N2C[C@@H](c3ccc(C(O)(C(F)(F)F)C(F)(F)F)cc3)[C@@](C)(c3ccccc3)C2)CC1 | – | – | 89 | 75 | – | – | – | – |
| COc1ccc(CNC(=O)N2C[C@@H](c3ccc(C(O)(C(F)(F)F)C(F)(F)F)cc3)[C@@](C)(c3ccc(F)cc3)C2)cc1 | 0.189 | – | 68 | 67 | – | 84 | – | – |
| COCC(=O)N1CCC(C(=O)N2C[C@@H](c3ccc(C(O)(C(F)(F)F)C(F)(F)F)cc3)[C@@](C)(c3ccc(F)cc3)C2)CC1 | 1.55 | – | 54 | 49 | – | 52 | – | – |
| C[C@]1(c2ccc(F)cc2)CN(C(=O)C2CCN(C(=O)C(N)=O)CC2)C[C@H]1c1ccc(C(O)(C(F)(F)F)C(F)(F)F)cc1 | 0.995 | – | 91 | 87 | – | 73 | – | – |
| CCNC(=O)N1C[C@@H](c2ccc(C(O)(C(F)(F)F)C(F)(F)F)cc2)[C@@](C)(c2ccccc2)C1 (racemic) | 1.78 | – | – | – | – | 73 | – | – |
